From patent US20250170266A1 (ZYMEWORKS BC INC., priority 2022, published 2025) come the findings set out here.

Common to all, as to format: cell-based
Test [1] concerns the target T1, hTLR7 (Homo sapiens, UniProt Q9NYK1).
T1 construct: host or cells: HEK-Blue hTLR7 reporter cells (HEK293-derived, own knowledge)
T1 sequence (Q9NYK1 27-1049): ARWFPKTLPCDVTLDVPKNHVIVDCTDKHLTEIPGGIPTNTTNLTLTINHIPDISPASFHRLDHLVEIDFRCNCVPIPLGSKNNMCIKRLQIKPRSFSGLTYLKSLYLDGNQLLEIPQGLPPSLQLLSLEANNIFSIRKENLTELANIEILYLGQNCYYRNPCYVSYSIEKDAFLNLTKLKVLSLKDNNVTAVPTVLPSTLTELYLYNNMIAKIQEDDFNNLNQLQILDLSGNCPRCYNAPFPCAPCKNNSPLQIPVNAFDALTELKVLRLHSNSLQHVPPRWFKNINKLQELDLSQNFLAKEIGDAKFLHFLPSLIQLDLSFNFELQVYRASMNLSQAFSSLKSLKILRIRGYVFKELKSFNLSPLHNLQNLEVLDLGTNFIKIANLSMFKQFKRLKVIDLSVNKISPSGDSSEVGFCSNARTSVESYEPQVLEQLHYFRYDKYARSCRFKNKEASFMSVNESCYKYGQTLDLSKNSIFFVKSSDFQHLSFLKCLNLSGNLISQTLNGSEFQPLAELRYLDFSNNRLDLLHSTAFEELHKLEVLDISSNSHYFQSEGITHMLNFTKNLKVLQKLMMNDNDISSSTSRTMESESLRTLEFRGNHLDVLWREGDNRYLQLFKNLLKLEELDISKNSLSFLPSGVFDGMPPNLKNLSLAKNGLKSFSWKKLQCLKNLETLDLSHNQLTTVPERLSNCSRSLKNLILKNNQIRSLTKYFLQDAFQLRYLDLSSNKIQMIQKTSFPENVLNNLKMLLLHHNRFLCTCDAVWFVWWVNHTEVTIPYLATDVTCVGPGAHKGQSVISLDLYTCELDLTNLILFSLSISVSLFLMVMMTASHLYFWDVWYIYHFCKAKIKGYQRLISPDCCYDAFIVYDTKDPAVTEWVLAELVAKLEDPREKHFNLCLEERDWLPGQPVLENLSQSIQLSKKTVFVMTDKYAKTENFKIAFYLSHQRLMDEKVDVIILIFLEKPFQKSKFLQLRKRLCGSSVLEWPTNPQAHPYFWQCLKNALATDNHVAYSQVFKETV
Briefly: Reporter Gene Assay (RGA), HEK-Blue hTLR7 reporter cells, SEAP readout. The following applies: overnight incubation, SEAP absorbance 620 nm. A digest of the protocol: (§1)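 HEK-Blue reporter cells expressing human or mouse TLR7 (1.5×10^4 cells) were treated with an 11-point, 4-fold compound titration from 15 pM in HEK-Blue Detection medium. Incubation was overnight at 37° C with 5% CO2. Secreted embryonic alkaline phosphatase was read as absorbance at 620 nm.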
(In general: A reporter such as luciferase makes a cellular process visible.)

Test [2] deals with Mouse splenocytes. The experiment in a line: Mouse Splenocyte Assay, cytokine release (HTRF). To be noted: 24 hours, mIL6 in supernatant; for pEC50: Splenocyte, read-out: Splenocyte IL6 EC50. Put shortly:
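Splenocytes from female balb/c nude mice, thawed, 100,000 per well in RPMI + 10% FBS. Exposed for 24 h at 37 °C to a 4-fold 11-point compound titration from 15 μM; supernatant mIL6 and mTNFα measured by HTRF.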
In general terms: Time-resolved FRET reads energy transfer from a long-lived donor to a nearby acceptor.

The target of test [3] is T2, mTLR7 (Mus musculus, UniProt P58681).
T2 construct: host or cells: HEK-Blue mTLR7 reporter cells (HEK293-derived, own knowledge)
T2 sequence (P58681 27-1050): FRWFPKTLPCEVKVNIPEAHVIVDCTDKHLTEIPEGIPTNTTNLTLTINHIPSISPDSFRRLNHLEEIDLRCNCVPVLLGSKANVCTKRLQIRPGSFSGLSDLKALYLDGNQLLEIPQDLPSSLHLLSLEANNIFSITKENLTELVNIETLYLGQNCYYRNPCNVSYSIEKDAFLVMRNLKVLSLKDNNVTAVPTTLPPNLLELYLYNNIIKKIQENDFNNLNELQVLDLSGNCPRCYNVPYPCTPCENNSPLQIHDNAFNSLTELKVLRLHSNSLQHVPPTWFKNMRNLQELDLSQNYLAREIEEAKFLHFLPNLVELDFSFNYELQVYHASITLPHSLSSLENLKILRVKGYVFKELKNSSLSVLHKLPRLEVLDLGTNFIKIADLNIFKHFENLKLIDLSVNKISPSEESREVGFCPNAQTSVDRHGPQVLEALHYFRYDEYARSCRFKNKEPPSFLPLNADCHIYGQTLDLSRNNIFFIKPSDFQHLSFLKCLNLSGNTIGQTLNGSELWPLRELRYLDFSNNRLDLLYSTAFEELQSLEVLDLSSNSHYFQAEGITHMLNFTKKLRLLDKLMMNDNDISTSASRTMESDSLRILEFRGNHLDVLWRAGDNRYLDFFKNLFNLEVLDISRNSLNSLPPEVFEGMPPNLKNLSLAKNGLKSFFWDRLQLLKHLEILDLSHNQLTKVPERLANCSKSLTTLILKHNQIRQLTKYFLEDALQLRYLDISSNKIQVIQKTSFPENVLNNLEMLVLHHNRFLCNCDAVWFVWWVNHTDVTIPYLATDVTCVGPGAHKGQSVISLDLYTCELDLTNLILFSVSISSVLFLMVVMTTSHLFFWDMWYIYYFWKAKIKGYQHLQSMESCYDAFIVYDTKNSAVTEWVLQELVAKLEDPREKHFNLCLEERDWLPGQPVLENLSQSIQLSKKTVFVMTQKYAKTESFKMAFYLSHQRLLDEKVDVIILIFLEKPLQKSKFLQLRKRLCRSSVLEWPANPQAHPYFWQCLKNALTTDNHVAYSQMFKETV
Briefly: Reporter Gene Assay (RGA), HEK-Blue mTLR7 reporter cells, SEAP readout. To be noted: overnight incubation, SEAP absorbance 620 nm. Put shortly: as §1

In test [4] the test system is Human peripheral blood mononuclear cells (PBMCs). Briefly: Human PBMC Assay, cytokine release (HTRF). To be noted: 24 hours; for pEC50: PBMC. Put shortly:
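Cryopreserved human PBMCs, rested overnight with 10 ng/ml hIL3, then 300,000 cells/well treated 24 h at 37° C with compound (4-fold, 11-point titration from 15 μM) in RPMI+10% FBS. Supernatant hIL6, hTNFα and hIFNα measured by HTRF; growth medium as negative control.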

Setting [5] is: hIFNα in supernatant, EC50 values approximated and divided into groups, read-out: PBMC IFNa EC50.
[6] abbreviates: hIL6 in supernatant, read-out: PBMC IL6 EC50.

pEC50: −log10 of the molar value. Like-named read-outs stand apart in the source and are kept apart here.

For orientation: pEC50 means −log10 of the EC50, conventionally taken in molar units. For `CCCCCNc1nc(N)c2nc(O)n(Cc3ccc(CNCC(C)(C)O)cc3)c2n1` [Compound 184, 6-amino-9-(4-(((2-hydroxy-2-methylpropyl)amino)methyl)benzyl)-2-(pentyl-amino)-9H-purin-8-ol], the pEC50 in test [1] was 6.56; in test [2], 6.84; in test [3], 7.69; in test [4] (setting [5]), 9.00 to 10.00; in test [4] (setting [6]) it was 7.53.
For the compound `CCCCCNc1nc(N)c2nc(O)n(Cc3ccc(CN(CC)CC)cc3)c2n1` [Compound 185, 6-amino-9-(4-((diethylamino)methyl)benzyl)-2-(pentylamino)-9H-purin-8-ol], the pEC50 in test [1] is 8.00; in test [2], 7.69; in test [3], 9.00; in test [4] (setting [5]) it was 8.00 to 9.00; in test [4] (setting [6]) it was 7.90.
Take `CCCCCNc1nc(N)c2nc(O)n(Cc3ccc(CNC4CC(F)(F)C4)cc3)c2n1` [Compound 186, 6-amino-9-(4-(((3,3-difluorocyclobutyl)amino)methyl)benzyl)-2-(pentyl-amino)-9H-purin-8-ol]: the pEC50 was 6.34 in test [1], 7.95 in test [3] and less than 8.00 in test [4] (setting [5]). In addition, the “Splenocyte IL6 EC50 (nM)” value in test [2] is “inactive”. Moreover, the “PBMC IL6 EC50 (nM)” value in test [4] (hIL6 in supernatant) is “inactive”.
As to `CCCCCNc1nc(N)c2nc(O)n(Cc3ccc(CN4CCNCC4)cc3)c2n1` [Compound 187, 6-amino-2-(pentylamino)-9-(4-(piperazin-1-ylmethyl)benzyl)-9H-purin-8-ol], the pEC50 in test [1] is 7.03; in test [2], 6.88; in test [3] it was 8.05; in test [4] (setting [5]), 9.00 to 10.00; in test [4] (setting [6]), 8.05.
For `CCCCCNc1nc(N)c2nc(O)n(Cc3ccc(CN4CCC(N)CC4)cc3)c2n1` [Compound 188, 6-amino-9-(4-((4-aminopiperidin-1-yl)methyl)benzyl)-2-(pentylamino)-9H-purin-8-ol], the pEC50 is 6.45 in test [1]; 6.70 in test [2]; 7.58 in test [3]; 8.00 to 9.00 in test [4] (setting [5]); 7.71 in test [4] (setting [6]).
In the same order, the values of `CCCCCNc1nc(N)c2nc(O)n(Cc3ccc(CNCCN)cc3)c2n1` [Compound 189, 6-amino-9-(4-(((2-aminoethyl)amino)methyl)benzyl)-2-(pentylamino)-9H-purin-8-ol] are 6.16, 7.09, 7.39, 8.00 to 9.00 and 6.82.
Take `CCCCCNc1nc(N)c2nc(O)n(Cc3ccc(CNCCCCN)cc3)c2n1` [Compound 190, 6-amino-9-(4-(((4-aminobutyl)amino)methyl)benzyl)-2-(pentylamino)-9H-purin-8-ol]: the pEC50 in test [1] was 5.85; in test [2] it was 6.97; in test [3] it was 7.09; in test [4] (setting [5]), 8.00 to 9.00; in test [4] (setting [6]) it was 6.88.
Regarding `CCCCCNc1nc(N)c2nc(O)n(Cc3ccc(CNCc4ccc(CN)cc4)cc3)c2n1` [Compound 191, 6-amino-9-(4-(((4-(aminomethyl)benzyl)amino)methyl)benzyl)-2-(pentyl-amino)-9H-purin-8-ol], the negative logarithm of the EC50 (pEC50) was 7.54 in test [1], 7.34 in test [2], 9.30 in test [3] and more than 10.00 in test [4] (setting [5]).
For `CCOc1nc(N)c2nc(O)n(Cc3ccc(CN4CCNCC4)nc3)c2n1` [Compound 192, 6-amino-2-ethoxy-9-((6-(piperazin-1-ylmethyl)pyridin-3-yl)methyl)-9H-purin-8-ol], the pEC50 is 7.29 in test [1], 6.17 in test [3], less than 8.00 in test [4] (setting [5]) and 6.69 in test [4] (setting [6]). Besides, in test [2], the “Splenocyte IL6 EC50 (nM)” value was “inactive”.
On to `CCOc1nc(N)c2nc(O)n(Cc3ccc(CNCc4cccnc4)cc3OC)c2n1` [Compound 193], for which the pEC50 in test [1] is 7.22; in test [2], 7.32; in test [3] it was 8.23; in test [4] (setting [5]), 9.00 to 10.00; in test [4] (setting [6]), 6.96.
For the compound `CCCCCNc1nc(N)c2nc(O)n(Cc3ccc(CNC4CCNCC4)cc3)c2n1` [Compound 194, 6-amino-2-(pentylamino)-9-(4-((piperidin-4-ylamino)methyl)benzyl)-9H-purin-8-ol], the pEC50 in test [1] was 6.51; in test [2], 5.86; in test [3], 7.44; in test [4] (setting [5]), 8.00 to 9.00; in test [4] (setting [6]), 5.96.
As to `CCCCCNc1nc(N)c2nc(O)n(Cc3ccc(CNCCN4CCNCC4)cc3)c2n1` [Compound 195, 6-amino-2-(pentylamino)-9-(4-(((2-(piperazin-1-yl)ethyl)amino)methyl)-benzyl)-9H-purin-8-ol], the pEC50 in test [1] is 5.76; in test [2], 6.00; in test [3], 6.89; in test [4] (setting [6]), 6.10.
